The record followed here is ChEMBL document CHEMBL3763124, “N-Benzylbenzamides: A Novel Merged Scaffold for Orally Available Dual Soluble Epoxide Hydrolase/Peroxisome Proliferator-Activated Receptor γ Modulators” (J Med Chem, 2016).

Each structure is given as a SMILES string. Converted amounts (≈) assume the structure as drawn. The source made the active and inactive calls. No cut-off for these calls is given here.

Series [1] can be described thus: Cmax in RjOrl:Swiss (CD-1) mouse plasma at 30 mg/kg, po. Type of series: ADME, organism-based. Details: dose 30 mg/kg, route oral.
Series [2] in a line: AUC (0 to infinity) in RjOrl:Swiss (CD-1) mouse plasma at 30 mg/kg, po. Type of series: ADME, organism-based. Details: dose 30 mg/kg, time infinity, route oral.
Series [3] is described as follows: Apparent oral clearance in RjOrl:Swiss (CD-1) mouse plasma at 30 mg/kg. It counts as ADME, organism-based.
A short description of series [4]: Apparent volume of distribution during terminal phase in RjOrl:Swiss (CD-1) mouse plasma at 30 mg/kg, po. As to conditions: read-out: Vz/F. Type of series: ADME, organism-based.
Series [5] deals with Free fatty acid receptor 1 (Homo sapiens) (UniProt O14842). Nature of the series: Partial agonist activity at human free fatty acid receptor 1 expressed in HEK293 cells assessed as inositol phosphate 1 accumulation incubated for 30 mins. Type of series: functional, cell-based.
Series [6] deals with Free fatty acid receptor 1 (Mus musculus) (UniProt Q76JU9). Nature of the series: Partial agonist activity at mouse free fatty acid receptor 1 expressed in HEK293 cells assessed as inositol phosphate 1 accumulation incubated for 30 mins. It counts as functional, cell-based.
The test system of another series is HepG2. The series is described as follows: Cytotoxicity against human HepG2 cells assessed as cell viability up to 30 uM after 48 hrs by WST-1 assay. Type of series: cell-based. Particulars: hepg2, 48 h. In general terms: Tetrazolium dyes change colour on reduction, which living cells bring about.
Series [7] relates to Mus musculus. The series is described as follows: Upregulation of PPARalpha gene expression in C57BL/6JRj mouse liver at 30 mg/kg/day, po administered with drinking water after 2 weeks by qPCR method. It counts as functional, organism-based. (In general: Quantitative PCR measures a nucleic acid by following its amplification.)
Series [8] deals with Mus musculus. Nature of the series: Upregulation of PPARgamma gene expression in C57BL/6JRj mouse liver at 30 mg/kg/day, po administered with drinking water measured after 2 weeks by qPCR method. It counts as functional, organism-based.
The subject of series [9] is Mus musculus. The series is described as follows: In vivo transactivation of PPARgamma in C57BL/6JRj mouse assessed as increase in CD36 expression in liver at 30 mg/kg/day, po administered with drinking water measured after 2 weeks by qPCR method. It counts as functional, organism-based.
For series [10], the system named is Mus musculus. Nature of the series: In vivo transactivation of PPARgamma in C57BL/6JRj mouse assessed as increase in PGC-1alpha expression in liver at 30 mg/kg/day, po administered with drinking water measured after 2 weeks by qPCR method. Type of series: functional, organism-based.
In series [11] the test system is Mus musculus. The series is described as follows: In vivo transactivation of PPARgamma in C57BL/6JRj mouse assessed as increase in LXRalpha expression in liver at 30 mg/kg/day, po administered with drinking water measured after 2 weeks by qPCR method. It counts as functional, organism-based.
Series [12] deals with Mus musculus. The series is described as follows: Upregulation of LXRalpha regulated ApoE expression in C57BL/6JRj mouse liver at 30 mg/kg/day, po administered with drinking water measured after 2 weeks by qPCR method. It counts as functional, organism-based.
The test system of series [13] is Mus musculus. Nature of the series: Upregulation of LXRalpha regulated ABCA1 expression in C57BL/6JRj mouse liver at 30 mg/kg/day, po administered with drinking water measured after 2 weeks by qPCR method. It counts as functional, organism-based.
The subject of series [14] is Mus musculus. Nature of the series: In vivo transactivation of PPARgamma in C57BL/6JRj mouse assessed as increase in sEH expression in liver at 30 mg/kg/day, po administered with drinking water after 2 weeks by qPCR method. It counts as functional, organism-based.
Series [15] in a line: Drug level in supernatant of African green monkey COS7 cells treated with Ethyl 2-Ethyl 3-[4-(N-(4-methoxy(2-trifluoromethyl)benzyl)-benzamide)]propanoate at 10 uM after 12 hrs by HPLC analysis. Type of series: ADME, cell-based. As to conditions: chlorocebus aethiops, cos-7, 12 h.
For series [16], the target named is T1, Peroxisome proliferator-activated receptor alpha (Homo sapiens) (UniProt Q07869).
T1 sequence (whole entry): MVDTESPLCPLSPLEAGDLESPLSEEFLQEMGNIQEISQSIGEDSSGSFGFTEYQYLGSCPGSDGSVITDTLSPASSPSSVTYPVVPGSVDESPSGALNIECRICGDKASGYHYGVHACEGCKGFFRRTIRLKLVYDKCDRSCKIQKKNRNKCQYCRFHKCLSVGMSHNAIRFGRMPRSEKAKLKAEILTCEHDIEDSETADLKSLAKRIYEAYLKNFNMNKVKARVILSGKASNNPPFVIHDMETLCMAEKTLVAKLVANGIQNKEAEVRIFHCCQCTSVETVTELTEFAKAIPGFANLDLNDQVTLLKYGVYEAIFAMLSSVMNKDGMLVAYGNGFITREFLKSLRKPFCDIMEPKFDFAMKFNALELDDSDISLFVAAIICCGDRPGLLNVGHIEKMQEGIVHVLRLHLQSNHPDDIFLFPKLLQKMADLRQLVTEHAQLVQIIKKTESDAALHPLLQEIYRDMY
The series is described as follows: Transactivation of human PPARalpha expressed in African green monkey COS7 cells at 10 uM incubated overnight by dual-glo luciferase reporter assay. It counts as cell-based. Particulars: COS-7.

The nature of series [17]: Solubility of the compound in water by microplate reader analysis. It counts as physicochemical.
Series [18] addresses T2, Peroxisome proliferator-activated receptor delta (Homo sapiens, UniProt Q03181).
T2 sequence (Q03181 whole entry): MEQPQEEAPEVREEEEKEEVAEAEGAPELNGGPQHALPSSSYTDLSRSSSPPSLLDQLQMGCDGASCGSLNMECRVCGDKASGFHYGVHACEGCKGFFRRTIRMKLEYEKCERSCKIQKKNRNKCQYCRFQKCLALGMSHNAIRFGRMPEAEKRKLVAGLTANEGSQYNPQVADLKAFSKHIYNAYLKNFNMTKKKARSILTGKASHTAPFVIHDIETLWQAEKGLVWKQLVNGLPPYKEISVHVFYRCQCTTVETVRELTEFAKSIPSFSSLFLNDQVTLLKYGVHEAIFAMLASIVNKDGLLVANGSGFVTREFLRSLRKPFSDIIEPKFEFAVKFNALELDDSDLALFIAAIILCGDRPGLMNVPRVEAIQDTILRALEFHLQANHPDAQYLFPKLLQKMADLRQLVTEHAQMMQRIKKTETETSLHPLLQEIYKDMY
Nature of the series: Transactivation of human PPARdelta expressed in African green monkey COS7 cells incubated overnight by dual-glo luciferase reporter gene assay. It counts as cell-based. As to conditions: cos-7.

Sequence of Free fatty acid receptor 1 (Mus musculus) (Q76JU9 whole entry): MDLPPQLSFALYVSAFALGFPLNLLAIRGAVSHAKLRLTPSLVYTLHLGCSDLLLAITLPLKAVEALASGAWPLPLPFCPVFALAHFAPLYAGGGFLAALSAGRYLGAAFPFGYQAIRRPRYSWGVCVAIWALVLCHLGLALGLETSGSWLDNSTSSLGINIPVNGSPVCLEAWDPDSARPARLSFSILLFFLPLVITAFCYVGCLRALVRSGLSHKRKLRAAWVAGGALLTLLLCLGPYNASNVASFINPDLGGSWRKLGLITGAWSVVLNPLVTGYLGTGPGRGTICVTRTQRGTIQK
Sequence of Free fatty acid receptor 1 (Homo sapiens) (O14842 whole entry): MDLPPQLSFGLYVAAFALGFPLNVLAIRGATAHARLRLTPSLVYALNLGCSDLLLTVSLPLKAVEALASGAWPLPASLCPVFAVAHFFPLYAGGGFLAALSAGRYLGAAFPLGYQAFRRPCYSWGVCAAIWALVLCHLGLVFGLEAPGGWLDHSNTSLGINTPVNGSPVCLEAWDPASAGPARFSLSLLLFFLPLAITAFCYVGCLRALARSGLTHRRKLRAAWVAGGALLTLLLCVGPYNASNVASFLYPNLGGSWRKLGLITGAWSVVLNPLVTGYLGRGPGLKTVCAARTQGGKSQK

Usually Cmax stands for the highest concentration seen after dosing. The term AUC(0-inf) denotes total exposure, with the tail of the curve extrapolated. For orientation: CL/F means clearance divided by bioavailability, as obtained after extravascular dosing. As a reminder, the solubility is the dissolved amount per volume that the medium holds. Take `CCC(Cc1ccc(C(=O)NCc2ccc(OC)cc2C(F)(F)F)cc1)C(=O)O` (centres undefined): the Cmax in [1] was 29100 ng/mL. The same compound had an AUC(0-inf) in series [2] of 94400 ng·h/mL. In [3], the apparent clearance (CL/F) is 5 mL/min/kg. Moreover, in series [4], the Vd/F was determined as 2 L/kg. For the same compound, the outcome (in series [5]; in series [6]; in the series with Mus musculus [7]; in the series on Mus musculus [8]; with Mus musculus [9]; in the series on Mus musculus [10]) was Active. In addition, the outcome in the series with Mus musculus [11] and with Mus musculus [14] was Active. Further, the Activity entry with HepG2 is “Non-toxic”; in [16] it was 29%. Besides, the result in the series on Mus musculus [12] and in the series with Mus musculus [13] was inactive. For the same compound, the Drug metabolism result in [15] was “metabolite_detected”. In addition, the solubility in [17] is 375 µM (≈ 154 µg/mL). Further, the EC50 result in [18] is listed as “Not Active”.
